Measured values from patent US20050261282A1, “Treatment of basal ganglia-related movement disorders with 2,3-benzodiazepines” (Motac Neuroscience Limited Williams House, priority 2002, published 2005).
Where a name gives a salt, the structure may show the parent alone.

Legend:
[1] = cited from earlier work
MPTP-lesioned marmoset [2] = assay: Parkinsonian disability (mobility score) in the MPTP-lesioned marmoset model of Parkinson's disease; format: in vivo, Marmosets (Callithrix jacchus); conditions: Tofisopam 5-20 mg/kg oral with L-DOPA 15-17.5 mg/kg oral; mobility score 0-9, every 30 minutes for 4 hours; FIGS. 4 and 5
Procedure: The effect of Tofisopam on L-DOPA-induced dyskinesia was assessed in the MPTP-lesioned marmoset model of Parkinson's disease. 1.1.1 Preparation of MPTP-lesioned marmoset model of Parkinson's disease Marmosets (Callithrix jacchus) (bred in a closed colony at the University of Manchester) were rendered parkinsonian by subcutaneous injection of 2 mg kgl MPTP for 5 consecutive days. The marmosets were allowed to recover for a minimum of 10 weeks until their parkinsonism became stable. The degree of activity and disability before and after MPTP treatment was assessed using a combination of scales as described in section 1.1.2. Animals were then treated with L-DOPA for at least 3 weeks to prime them to elicit dyskinesia. […] The behavioural tests were assessed every 30 minutes for 4 hours, by post hoc analysis of video-recordings by an observer blinded to the treatment. […]

MPTP-lesioned marmoset [3] = assay: L-DOPA-induced dyskinesia score in the MPTP-lesioned marmoset model of Parkinson's disease; format: in vivo, Marmosets (Callithrix jacchus); conditions: Tofisopam 5-20 mg/kg oral with L-DOPA 15-17.5 mg/kg oral; dyskinesia score 0-4, every 30 minutes for 4 hours; FIGS. 4 and 5
Procedure: The effect of Tofisopam on L-DOPA-induced dyskinesia was assessed in the MPTP-lesioned marmoset model of Parkinson's disease. 1.1.1 Preparation of MPTP-lesioned marmoset model of Parkinson's disease Marmosets (Callithrix jacchus) (bred in a closed colony at the University of Manchester) were rendered parkinsonian by subcutaneous injection of 2 mg kgl MPTP for 5 consecutive days. The marmosets were allowed to recover for a minimum of 10 weeks until their parkinsonism became stable. The degree of activity and disability before and after MPTP treatment was assessed using a combination of scales as described in section 1.1.2. Animals were then treated with L-DOPA for at least 3 weeks to prime them to elicit dyskinesia. (c) Dyskinesia—non-parametric measures based on the following scale: Dyskinesia score: 0=Absent, 1=Mild, fleeting, 2=Moderate, not interfering with normal activity, 3=Marked, at times interfering with normal activity, 4=Severe, continuous, replacing normal activity. The behavioural tests were assessed every 30 minutes for 4 hours, by post hoc analysis of video-recordings by an observer blinded to the treatment. Marmosets received all treatments as described in Table 1. The treatments were randomised such that on each day all marmosets received one of the treatments. There was at least 48 hours washout between treatments. [table]

SMILES	solubility in water [1]	antiparkinsonian action of L-DOPA (parkinsonian disability) (MPTP-lesioned marmoset [2])	severity of L-DOPA-induced dyskinesia (MPTP-lesioned marmoset [3])	solubility in alcohol ([1]; alcohol)
CCN(CC)CCNC(=O)c1cc(Cl)c(N)cc1OC [Metoclopramide hydrochloride, 4-amino-5-chloro-N-[2-(diethylamino)ethyl]-2-methoxy benzamide monohydrochloride monohydrate]	freely soluble in water	–	–	–
CCC1C(C)=NN=C(c2ccc(OC)c(OC)c2)c2cc(OC)c(OC)cc21 (centres unmarked) [Tofisopam]	–	without affecting the antiparkinsonian action	reduces the severity of L-DOPA-induced dyskinesia	–
N[C@@H](Cc1ccc(O)c(O)c1)C(=O)O [levodopa, (−)-3-(3,4-dihydroxy-phenyl)-L-alanine]	slightly soluble in water	–	–	insoluble in alcohol
